Marks after values point to notes of the source that are not given here.

Experimental findings from patent publication EP0818453B1, “Benzothiophene compounds and methods of use” (ELI LILLY AND COMPANY, priority 1996, dated 1998) are described below.

The data set concerns ovariectomized rats. The experiment in a line: Ovariectomized rat model of postmenopausal hyperlipidemia (serum cholesterol, uterine weight, uterine eosinophil peroxidase). The class given is in vivo. The settings on record: for Serum Cholest. % Dec.: decrease versus ovariectomized controls; for Uterine Eosinophil (Vmax): eosinophil peroxidase, Vmaximum; for Uterine Weight % Inc: increase versus ovariectomized controls. Here is the method:
Experimental models of postmenopausal hyperlipidemia are known in the art. Germane to this invention is the ovariectomized rat model which is detailed in U.S. 5,464,845.
Data presented in Table 1 show comparative results among ovariectomized rats, rats treated with 17-a-ethynyl estradiol(EE2), and rats treated with certain compounds of this invention. […] This uterine response to estrogen is well recognized in the art.
As expressed in the data below, estrogenicity also was assessed by evaluating the response of eosinophil infiltration into the uterus.
The data presented in Table 1 reflect the response per treatment group.

Regarding `C[C@]12CC[C@@H]3c4ccc(O)cc4CC[C@H]3[C@@H]1CC[C@@H]2O` [17-b-Estradiol], the “Serum Cholest. % Dec.” value (0.001 mg/kg PO) is reported as 67.6* %, the “Serum Cholest. % Dec.” value (0.01 mg/kg PO) is reported as 57.5* % and the “Serum Cholest. % Dec.” value (0.1 mg/kg PO) is on record as 58.7* %.

For the compound `Cl.O=C(c1ccc(-c2ccc(OCCN3CCCCC3)cc2)cc1)c1c(-c2ccc(O)cc2)sc2cc(O)ccc12` [Compound 5, [2-(4-Hydroxyphenyl)-6-hydroxybenzo[b]thien-3-yl] [4'-[2-(1-piperidinyl)ethoxy]biphenyl-4-yl]methanone hydrochloride], the “Serum Cholest. % Dec.” value runs as follows: (0.01 mg/kg PO) 15.9* %; (0.1 mg/kg PO) 66.7* %; (1.0 mg/kg PO) 87.3* %.

On to `O=C(c1ccc2cc(OCCN3CCCCC3)ccc2c1)c1c(-c2ccc(O)cc2)sc2cc(O)ccc12` [Compound 10, [2-(4-Hydroxyphenyl)-6-hydroxybenzo[b]thien-3-yl][6-[2-(1-piperidinyl)ethoxy]naphth-2-yl]methanone], for which the “Serum Cholest. % Dec.” value runs as follows: (0.1 mg/kg PO) 39.4* %; (1.0 mg/kg PO) 59.3* %; (10.0 mg/kg PO) 69.1* %.

As for `C#C[C@]1(O)CC[C@H]2[C@@H]3CCc4cc(O)ccc4[C@H]3CC[C@@]21C` [EE2, 17-a-ethynyl estradiol], the “Serum Cholest. % Dec.” value is reported as -1.9% (0.001 mg/kg PO), 12% (0.01 mg/kg PO) and 77.7* % (0.1 mg/kg PO). Further, the “Uterine Eosinophil (Vmax)” value is listed as 20* (0.001 mg/kg PO), 25.6* (0.01 mg/kg PO) and 276.6* (0.1 mg/kg PO). For the same compound, the “Uterine Weight % Inc” value is 35.8* % (0.001 mg/kg PO), 61.0* % (0.01 mg/kg PO) and 129.6* % (0.1 mg/kg PO). Also, the uterine weight result (0.1 mg/kg/day orally, versus ovariectomized animals, result in words) is listed as “substantially greater than the uterine weight of the ovariectomized animals”. Further, the serum cholesterol entry (orally administered at 0.1 mg/kg/day, result in words) was “caused a decrease in serum cholesterol”. Also, the “eosinophil infiltration into the uterus” value (stromal layer of ovariectomized rat uteri, result in words) was “substantial and expected increase in eosinophil infiltration”.
